Laboratory results published in publication PMC9000575, “Solution Equilibrium Studies on Salicylidene Aminoguanidine Schiff Base Metal Complexes: Impact of the Hybridization with L-Proline on Stability, Redox Activity and Cytotoxicity” (Molecules, 2022).

Columns and labels:
[1] = proton dissociation constants by UV-vis spectrophotometric titration; type: physicochemical; settings: for pK2 (H2L+) / pK3 (HL): Pro-SISC-Me; for pK1 (H2L+) / pK2 (HL): SISC
Experimental: An Agilent Cary 8454 diode array spectrophotometer (Agilent Technologies, Santa Clara, CA, USA) was used to record the UV-vis spectra at an interval of 200–800 nm. The path length was 1 or 2 cm. Spectrophotometric titrations were performed in water or in 30% (v/v) DMSO/H2O on samples containing the ligands at 50 μM–1 mM concentration, in the pH range from 1.0 to 12.5 in the absence or in the presence of 1 or 0.5 or 0.33 equiv. metal ions. Ka values of the ligands and the UV-vis spectra of the individual species were calculated by the computer program PSEQUAD [45].

[2] = system: Colo-320 (doxorubicin-resistant) human colon adenocarcinoma cells; experiment: MTT cytotoxicity test; type: cell-based; settings: Homo sapiens, Colo-320, 72 h
Experimental: (§1) All cell culture reagents were obtained from Sigma-Aldrich and plastic ware from Sarstedt (Nümbrecht, Germany). Human colon Colo-205 (chemo-sensitive) and Colo-320 (doxorubicin-resistant) adenocarcinoma and MRC-5 human embryonal lung fibroblast cell lines were purchased from LGC Promochem, Teddington, UK. The colon adenocarcinoma cells were cultured in Roswell Park Memorial Institute (RPMI) 1640 medium supplemented with 10% heat-inactivated fetal bovine serum, 2 mM L-glutamine, 1 mM sodium pyruvate and 100 mM HEPES. The MRC-5 cell line was cultured in Eagle’s Minimal Essential Medium (EMEM, Sigma-Aldrich, St. Louis, MO, USA) supplemented with a non-essential amino acid (NEAA) mixture (Sigma-Aldrich, St. Louis, MO, USA) a selection of vitamins, 10% heat-inactivated foetal bovine serum (FBS), 2 mM L-glutamine (Sigma-Aldrich, St. Louis, MO, USA), 1 mM Na-pyruvate (Sigma-Aldrich, St. Louis, MO, USA), nystatin (Sigma-Aldrich, St. Louis, MO, USA) and a penicillin-streptomycin mixture (Sigma-Aldrich, St. Louis, MO, USA) in concentrations of 100 U/L and 10 mg/L, respectively. The cells were incubated at 37 °C, in a 5% CO2, 95% air atmosphere. All cell lines were detached with Trypsin-Versene® (EDTA) solution for 5 min at 37 °C.
(§2) The tested compounds were dissolved in 90% (v/v) DMSO/H2O using 8 mM concentration, […] in the final samples the DMSO content was always lower than 1%. Then stock solutions were diluted in complete culture medium, and two-fold serial dilutions of compounds were prepared in 100 μL of the medium, horizontally. The semi-adherent colon adenocarcinoma cells were treated with Trypsin-Versene (EDTA) solution. They were adjusted to a density of 1 × 10^4 cells in 100 μL of RPMI 1640 or EMEM medium and were added to each well, with the exception of the medium control wells. The final volume of the wells containing compounds and cells was 200 μL. The plates containing Colo-205, Colo-320 or MRC-5 cells were incubated at 37 °C for 72 h; at the end of the incubation period, 20 μL of MTT solution (from a stock solution of 5 mg/mL) were added to each well. After incubation at 37 °C for 4 h, 100 μL of SDS solution (10% in 0.01 M HCI) were added to each well, and the plates were further incubated at 37 °C overnight. Cell growth was determined by measuring the optical density (OD) at 540/630 nm with a Multiskan EX plate reader (Thermo Labsystems, Cheshire, WA, USA). Inhibition of the cell growth (expressed as IC50: inhibitory concentration that reduces by 50% the growth of the cells exposed to the tested compounds) was determined from the sigmoid curve where 100 − ((ODsample − ODmedium control)/(ODcell control − ODmedium control)) × 100 values were plotted against the logarithm of compound concentrations. Curves were fitted by GraphPad Prism software (2021, Graphpad Software, San Diego, CA, USA) using the sigmoidal dose–response model (comparing variable and fixed slopes). The IC50 values were obtained from at least three independent experiments.

[3] = system: MRC-5 human embryonal lung fibroblast cells; experiment: MTT cytotoxicity test; type: cell-based; settings: Homo sapiens, MRC5, MRC-5, 72 h
Experimental: as §1, §2

[4] = system: Colo-205 human colon adenocarcinoma cells; experiment: MTT cytotoxicity test; type: cell-based; settings: Homo sapiens, Colo-205, 72 h
Experimental: as §1, §2

[5] = n-octanol/water distribution coefficient, shake-flask; type: physicochemical; settings: n-octanol/buffered aqueous solution, pH 7.4; n-octanol/H2O, pH 7.40, 25 °C, 0.10 M KCl; read-out: logD7.4
Experimental: Distribution coefficients (D7.4) values were determined by the traditional shake-flask method in n-octanol/buffered aqueous solution at pH 7.40 (20 mM HEPES, 0.10 M KCl) at 25.0 ± 0.2 °C as described previously.

[6] = stability constants of Fe(II) complexes by pH-potentiometry; type: physicochemical; settings: 30% (v/v) DMSO/H2O; for logβ [Fe(II)LH−1] / logβ [Fe(II)LH−2]− / logβ [Fe(II)L]+: 25 °C, I = 0.10 M (KCl), anaerobic; for pFe(II) (−log[Fe(II)]): calculated at pH 7.4, cFe = 1 μM, cligand = 10 μM
Experimental: Complexation with Fe(II) was studied under strictly anaerobic conditions. […] Aside from the better solubility of the Pro-SISC-Me complexes, the two ligands behaved similarly and the difference between their Fe(II)-binding efficacy was minor.
The pH-potentiometric measurements for the determination of the proton dissociation constants of the ligands and the overall stability constants of the metal complexes were carried out at 25.0 ± 0.1 °C in water or in 30% (v/v) DMSO/H2O as solvent and at an ionic strength of 0.10 M (KCl). The titrations were performed with carbonate-free KOH solution of known concentration (0.10 M). The concentrations of the base and the HCl were determined by pH-potentiometric titrations. An Orion 710A pH-meter equipped with a Metrohm combined electrode (type 6.0234.100), and a Metrohm 665 Dosimat burette were used for the titrations. […] The average water ionization constant pKw was 13.76 ± 0.05 (water) or 14.52 ± 0.05 (30% (v/v) DMSO/H2O). The pH-potentiometric titrations were performed in the pH range 2.0–12.5. The initial volume of the samples was 10.0 mL. The ligand concentration was 2 mM and metal ion-to-ligand ratios of 1:1–1:3 were used. The accepted fitting of the titration curves was always less than 0.01 mL. Argon was always passed over the solutions during the titrations. The exact concentration of the ligand stock solutions together with the proton dissociation constants were determined by pH-potentiometric titrations with the use of the computer program HYPERQUAD [44]. It was also utilized to establish the stoichiometry of the complexes and to calculate the stability constants (β(MpLqHr)). β(MpLqHr) is defined for the general equilibrium pM + qL + rH ⇋ MpLqHr as β(MpLqHr) = [MpLqHr]/[M]^p[L]^q[H]^r, where M denotes the metal ion and L the completely deprotonated ligand. In all calculations exclusively, titration data were used from experiments in which no precipitate was visible in the reaction mixture.

pK2 (H2L+) ([1]; 30% DMSO/H2O)	pK3 (HL) ([1]; 30% DMSO/H2O)	pK2 (H2L+) ([1]; H2O)	pK3 (HL) ([1]; H2O)	logD [5]	logβ [Fe(II)LH−1] [6]	logβ [Fe(II)LH−2]− [6]	logβ [Fe(II)L]+ [6]	pFe(II) (−log[Fe(II)]) [6]	pK1 (H2L+) ([1]; 30% DMSO/H2O)	pK2 (HL) ([1]; 30% DMSO/H2O)	pK1 (H2L+) ([1]; H2O)	pK2 (HL) ([1]; H2O)	Structure (SMILES)	IC50 [2]	IC50 [3]	IC50 [4]
7.07 ± 0.03	9.84 ± 0.03	7.30 ± 0.03	9.67 ± 0.03	-0.88 ± 0.05	−1.08 ± 0.05	<−11	6.83 ± 0.04	6.1					Cc1cc(C=NNC(=N)N)c(O)c(CN2CCCC2C(=O)O)c1 (stereo not drawn) [Pro-SISC-Me]	> 80 µM	> 80 µM	> 80 µM
				0.83	−0.73 ± 0.07	−8.94 ± 0.08	7.20 ± 0.06	6.0	7.56 ± 0.03	10.67 ± 0.03	7.64 ± 0.03	10.12 ± 0.03	N=C(N)NN=Cc1ccccc1O [SISC, 2-(2-hydroxybenzylidene)hydrazinecarboximidamide]	> 80 µM	> 80 µM	> 80 µM
